Data taken from patent US20060167006A1, “Method of treatment” (priority 2003, published 2006).

Columns and labels:
[1] = test system: Mia-PaCa-2 cells; test: Growth factor-induced proliferation (MTT), Mia-PaCa-2; format: cell-based, human; conditions: Mia-PaCa-2, growth factor alone (absence of Compound I), 72 hours, MTT
Procedure: (§1) Cell culture and MTT assay: Human pancreatic cancer cell lines are routinely grown in DMEM (Colo-357 and Mia-PaCa-2) or RPMI (Aspc-1, BxPc-3, Capan-1, and T3M4) supplemented with 10% FBS, 100 U/ml penicillin, and 100 μg/ml streptomycin (complete medium). To assess cell proliferation, the MTT test is employed. […] After 48 or 72 hours of incubation, 3-(4,5-methylthiazol-2-yl)-2,5-diphenyl-tetrazolium bromide (MTT) is added (50 μg/well) for 4 hours. Formazan products are solubilized with acidic isopropanol, and the optical density is measured at 570 nm. […] All experiments are performed in triplicate.
(§2) EGF-induced proliferation of both Mia-PaCa-2 and T3M4 cell lines in a dose-dependent manner is seen with maximal effects of +72% ±7.5% (Mia-PaCa-2) and +52% ±23% (T3M4). […] FGF-2 markedly stimulates cell growth in Mia-PaCa-2 cell lines with maximal effects of +79% ±6%, and only slightly stimulated T3M4 cell lines, with maximal effects of +7% ±4%. […] Both cell lines are less sensitive to IGF-1 stimulation compared with EGF and FGF-2, with maximal effects of +24% ±2% in Mia-PaCa-2 and +17% ±4% in. T3M4.

[2] = test system: T3M4 cells; test: Growth factor-induced proliferation (MTT), T3M4; format: cell-based, human; conditions: T3M4, growth factor alone (absence of Compound I), 72 hours, MTT
Procedure: as §1, §2

| Substance | Maximal effect of growth factor on cell growth [1] | Maximal effect of growth factor on cell growth [2] |
| --- | --- | --- |
| IGF-1: human recombinant IGF-1 from R&D Systems | +24% ±2 | +17% ±4 |
| FGF-2: human recombinant FGF-2 from R&D Systems | +79% ±6 | +7% ±4 |
